{"source": "patent US20120172344A1", "about": "“INSULIN-PRODUCING CELL INDUCER, GLUCOSE INTAKE ENHANCER, AND THERAPEUTIC AGENT FOR DIABETES OR DIABETES COMPLICATIONS” (KYUSHU UNIVERSITY, NATIONAL UNIVERSITY CORPORATION, priority 2009, published 2012)", "type_in_all_cases": "in vivo, mouse", "key": {"[1]": {"system": "Tg23 mice (diabetic nephropathy)", "test": "Experimental Example 2: effect of estradiol on second to third stage of diabetic nephropathy", "method": "(a) Albumin concentration: Albuwellkit (Exocell),\n(b) Creatinine: High-performance liquid chromatography (HPLC), and\n(c) Creatinine clearance (Ccr): calculated by the next formula.\nCcr=urine creatinine (mg/dL)×urine volume (μL/min)/serum creatinine (mg/dL)/body weight (g). [Math. 1]\n50 glomeruli were analyzed for each of the mice. The total area of the glomeruli was measured in PAS-stained sections using Image-Pro Plus (Media Cybernetics). The PAS-positive area fraction was calculated as the ratio of PAS-positive area to glomerular sectional surface area. Glomerular number was measured by counting all of the glomeruli per mid-transverse section of left kidney for each of the mice.\nFor Tg23 mice, at 20-35 weeks of age, which is when reduction in renal functions and renal lesions are observed, a single pellet of 17β-estradiol was subcutaneously administered, and the effect of estradiol was investigated. […]\nPAS staining, and immunostaining using the anti-collagen type IV antibody were performed on glomerular tissues from each of the mice (48 weeks of age), and the results of the staining are shown respectively in FIG. 2(1) and FIG. 2(2). […] The expression intensity was measured in random fields (n=30/section) of the glomerulus, and the result was expressed as average pixel intensity."}, "[2]": {"system": "muscles (soleus muscle) of Tg23 mice", "test": "Experimental Example 3: glucose (2-deoxy-D-glucose) intake of soleus muscles", "conditions": "Tg mice, Tx-E group vs Ct group, 20-40 weeks after the administration", "procedure": "Mice were sacrificed, and extensor digitorum longus (EDL) muscles and soleus muscles were quickly removed and processed. Both ends of each of the muscles were tied with suture (silk 4-0), and mounted on an incubation apparatus. First, the muscles were preincubated for 20 minutes in 6 ml of Krebs-Ringer bicarbonate (KRB) buffer (117 mM NaCl, 4.7 mM KCl, 2.5 mM CaCl2, 1.2 mM KH2PO4, 1.2 mM MgSO4, 24.6 mM NaHCO3, pH 7.5) containing 2 mM pyruvate. Then, the muscles were incubated in KRB buffer in presence or absence of insulin.\nImmediately after muscle incubation, the muscles were transferred to KRB buffer containing 1 mM 2-deoxy-D-[^3H]glucose (1.5 μCi/ml) and 7 mM D-[^14C]mannitol (0.3 μCi/ml) (PerkinElmer Life Sciences) at 30° C., and incubated again for 10 minutes. When using insulin, a buffer containing insulin was used for incubation in a similar manner.\nGlucose transport was terminated by dipping the muscles in KRB buffer containing 80 μmol/L cytochalasin B at 4° C., and then the muscles were frozen in liquid nitrogen. The muscles were weighed, and digested by incubating in 250 μl of 1 M NaOH at 80° C. for 10 minutes. Digests were neutralized with 250 μl of 1 M HCl. […] Radioactivity in aliquots of the digested muscle was determined by liquid scintillation counting for dual labels, and extracellular and intracellular spaces were calculated. […]"}, "[3]": {"system": "Tg23 mice (ICERIγ transgenic diabetes model mice)", "test": "Experimental Example 1: effect of estradiol administration on blood glucose and insulin-producing cells in diabetes model mice", "method": "Blood glucose levels were measured by an enzyme-electrode method with ONE TOUCH UltraVue (Johnson & Johnson K.K.) on whole blood taken from tail veins of subject animals.\nPancreases were fixed in 10% formalin, embedded in paraffin, and sliced into sections having a thickness of 2 μm. The sections were immunostained with overnight incubation at 4° C. in dilution solutions containing various primary antibodies described below.\nPrimary antibodies: Anti-insulin antibody (dilution rate 1:500; DAKO), anti-glucagon antibody (dilution rate 1:500; Linco Research Inc.), anti-DBA antibody (dilution rate 1:300; Vector Laboratories), anti-Pdx-1 antibody (dilution rate 1:1000; kindly provided by Chris V. E. Wright, Vanderbilt University), anti-collagen type IV antibody (dilution rate 1:250; PROGEN Biotechnik), and anti-Glut 4 antibody (dilution rate 1:1000; Chemicon).\nThe primary antibodies were detected by immunofluorescence labeling using secondary antibodies conjugated with Alexa 488 or Alexa 568 (1:200; Molecular Probes); third antibody conjugated with biotin-labeled secondary antibodies and streptavidin Alexa 488 or Alexa 568 (1:800; Vector Laboratories); or by an immunoperoxidase staining method using biotin-labeled secondary antibodies. Staining was visualized with diaminobenzidine. The sections were counterstained with hematoxylin. Images were captured on a BZ9000 microscope (Keyence), or in the confocal mode on an LSM 510 META confocal microscope (Carl Zeiss). Immunofluorescence intensity was measured in random fields (n=30/section) using LSM Zeiss software, and the result was expressed as average pixel intensity.\nICERIγ transgenic mice (male) were generated from a pure line C57BL/6J (Japan SLC, Inc.) in accordance with the method described in Example 1 of Patent Literature 1 (WO2004/072282). […]\nTg23 mice (11 weeks of age) were divided into two groups: an estradiol administration group (n=24), and a control group (n=57). […] Then, body weight and blood glucose levels of the Tg mice and wild-type mice (WT) (n=81) were monitored every week, and the mice were dissected after 43 weeks. […]"}}, "data": [{"smiles": "C[C@]12CC[C@@H]3c4ccc(O)cc4CC[C@H]3[C@@H]1CC[C@@H]2O", "note": "[estradiol, 17β-estradiol]", "values": [{"measurement": "sclerosis of the glomeruli (PAS staining, collagen IV immunostaining)", "setting": "[1]; Tg23 mice treated at 24 weeks of age (Tx + single 17β-estradiol pellet s.c.), tissues at 48 weeks of age", "value": "alleviated to a degree not different from wild-type mice"}, {"measurement": "renal functions and renal tissues (GFR, Ualb/Cr, kidney weight, urinary glucose, urine volume)", "setting": "[1]; Tg23 mice, second stage of diabetic nephropathy (early nephropathia stage), Tx + single 17β-estradiol pellet s.c.", "value": "dramatically improves"}, {"measurement": "amount of glucose intake of muscles", "setting": "[2]", "value": "significantly increases"}, {"measurement": "blood glucose levels", "setting": "[3]; Tg23 mice 11 weeks of age, testectomy (Tx) + single 17β-estradiol pellet s.c. (0.72 mg/pellet, 90-day release), vs wild-type mice", "value": "lowered to the same levels of normal mice"}, {"measurement": "persistence of lowered blood glucose levels", "setting": "[3]; Tx+E group, Tg23 mice", "value": "maintained until death"}, {"measurement": "insulin-producing cells in pancreatic duct epithelium cells of the pancreas", "setting": "[3]; Tx+E group, anti-insulin immunostaining, 1 week after estradiol administration", "value": "induced"}]}]}
